Measurements from US6875608B1, “Propagation and/or derivation of embryonic stem cells” (University of Edinburgh, priority 1998, dated 2005).

B1: G-CSF: cytokine ligand used to stimulate chimaeric G-CSFR/gp130 receptors in ES cell transfectants (protein, UniProt P09919 31-207, looked up)
Granulocyte …: TPLGPASSLPQSFLLKCLEQVRKIQGDGAALQEKLVSECATYKLCHPEELVLLGHSLGIPWAPLSSCPSQALQLAGCLSQLHSGLFLYQGLLQALEGISPELGPTLDTLQLDVADFATTIWQQMEELGMAPALQPTQGAMPAFASAFQRRAGGVLVASHLQSFLEVSYRVLRHLAQP

Legend:
ERK1 and ERK2 = test: PD098059 dependent inhibition of ERK activation (immunoblot with phosphospecific anti-ERK antibodies); assay type: cell-based, mouse; settings: GRgp(278) cells, 48 hours inhibitor plus LIF, then G-CSF 30 ng/ml 10 minutes
Protocol: For analysis of STAT3 and ERK phosphorylation, 1×10^6 ES cells were plated per well of 6-well dishes. Cells were serum starved and treated with cytokines as described above and then lysed in 100 μl SDS sample buffer. Ten microlitre aliquots were fractionated on a 10% SDS polyacrylamide gel, electroblotted onto nitrocellulose and probed with anti-ERK and anti-STAT3 antibodies according to the directions provided by supplier (New England Biolabs).
The continued proliferation of undifferentiated ES cells at inhibitory concentrations of PD098059 confirms that gp130-dependent activation of ERK1 and ERK2 is not required for the propagation of ES cells.

ZIN40 ES cells = test: Chimaera analysis of ES cell pluripotency; assay type: in vivo; settings: 48 hours LIF plus 25 μM PD098059, 24 hours LIF only, injected into mouse blastocysts, day 9.5
Protocol: ZIN40 ES cells were treated wit 25 μM PD098059 plus 5 U/ml LIF for 48 hours, re-fed with medium containing LIF for a further 24 hours and than microinjected into C57BL/6 blastcysts. Embryos were collected at day 9.5 of pregnancy and stained for β-galactosidase activity.
ZIN40 ES cells were injected into C57BL/6 blastocysts and transferred into pseudopregnant mice. Mice were sacrificed at day 9.5 of pregnancy and the embryos were stained with X-gal.
We therefore determined whether ES cells propagated in the absence of gp130-dependent ERK. signaling have the capacity to incorporate into the developing embryo and differentiate appropriately. Cells were cultured at low density (1000 cell/cm^2) for 48 hours in the presence of LIF plus 25 μM PD098059, or in the absence of LIF. They were then re-fed with medium containing LIF but lacking the inhibitor for a further 24 hours before microinjection into mouse blastocysts. ZIN40 cells were used in this experiment, since they carry a nuclear localised β-galactosidase marker that is widely expressed in differentiated cell types. […] However, cells cultured in the absence of LIF for 48 hours were incapable of colonizing the embryo.

IOUD2 ES cells = test: Aggregate (embryoid body) culture, staining for Oct4 β-galactosidase; assay type: cell-based, mouse
Description: Aggregation induces ES cells to differentiate and form structures known as embryoid bodies that contain multiple differentiated cell types. Undifferentiated cells are largely or wholly eliminated during embryoid formation due to induced differentiation and/or apoptosis.
IOUD2 ES cells, which carry a targeted integration of βgeo into the Oct4 locus were used to enable visualisation of undifferentiated cells by histochemical staining for β-galactosidase. Aggregates were formed in hanging drops by seeding 100 cells/20 μl drop in the presence of 0, 25, 50, 75 or 100 μm PD089059. Aggregates were maintained for 6 days, then transferred to gelatin-coated dishes and allowed to attach overnight. Cultures were then fixed and stained for β-galactosidase activity. In the absence of the Mek inhibitor, the embryoid bodies were well differentiated and very few Oct4 β-galactosidase expressing cells were present in the outgrowths. […] At PD089059 concentrations of 75-100 μm, the great majority of cells were undifferentiated.

[1] = biological target: T1, GRgp(278) chimeric receptor (UniProt Q00560+Q99062); test: Self-renewal response of GRgp130 transfectants to G-CSF; assay type: cell-based; settings: GRgp(278) transfectants, 6 days, 300 fg-30 ng/ml G-CSF
T1 construct: fusing the extracellular domain of the human G-CSFR to an EcoRI fragment of mouse gp130; an EcoRI fragment of mouse gp130 containing the transmembrane domain and the entire cytoplasmic region; expressed in transfected cells
Protocol: (§1) Photomicrographs were taken of X-gal stained, representive colonies formed by GRgp(278) and GRgp(Y118F) transfectants after 6 days culture with 300 fg, 30 pg and 30 ng/ml of G-CSF. Photomicrographs were also taken of representative colonies formed by GRgp(278) and GRgp(Y118F) transfectants after 6 days culture with no cytokine, IL-6 (100 ng/ml+sIL-6R), G-CSF(30 ng/ml) or, IL-6(100 ng/ml+sIL-6R) and G-CSF(30 ng/ml).
(§2) All assays were performed in triplicate.

[2] = biological target: T2, GRgp(Y118F) chimeric receptor (UniProt Q00560+Q99062, Y757F); test: as above; assay type: cell-based; settings: GRgp(Y118F) ES cells, 6 days, 300 fg-30 ng/ml G-CSF
T2 construct: fusing the extracellular domain of the human G-CSFR to an EcoRI fragment of mouse gp130; an EcoRI fragment of mouse gp130 containing the transmembrane domain and the entire cytoplasmic region; expressed in transfected cells
T2 sequence (Q99062+Q00560 with tags, fused parts or gaps Q00560:Y757F): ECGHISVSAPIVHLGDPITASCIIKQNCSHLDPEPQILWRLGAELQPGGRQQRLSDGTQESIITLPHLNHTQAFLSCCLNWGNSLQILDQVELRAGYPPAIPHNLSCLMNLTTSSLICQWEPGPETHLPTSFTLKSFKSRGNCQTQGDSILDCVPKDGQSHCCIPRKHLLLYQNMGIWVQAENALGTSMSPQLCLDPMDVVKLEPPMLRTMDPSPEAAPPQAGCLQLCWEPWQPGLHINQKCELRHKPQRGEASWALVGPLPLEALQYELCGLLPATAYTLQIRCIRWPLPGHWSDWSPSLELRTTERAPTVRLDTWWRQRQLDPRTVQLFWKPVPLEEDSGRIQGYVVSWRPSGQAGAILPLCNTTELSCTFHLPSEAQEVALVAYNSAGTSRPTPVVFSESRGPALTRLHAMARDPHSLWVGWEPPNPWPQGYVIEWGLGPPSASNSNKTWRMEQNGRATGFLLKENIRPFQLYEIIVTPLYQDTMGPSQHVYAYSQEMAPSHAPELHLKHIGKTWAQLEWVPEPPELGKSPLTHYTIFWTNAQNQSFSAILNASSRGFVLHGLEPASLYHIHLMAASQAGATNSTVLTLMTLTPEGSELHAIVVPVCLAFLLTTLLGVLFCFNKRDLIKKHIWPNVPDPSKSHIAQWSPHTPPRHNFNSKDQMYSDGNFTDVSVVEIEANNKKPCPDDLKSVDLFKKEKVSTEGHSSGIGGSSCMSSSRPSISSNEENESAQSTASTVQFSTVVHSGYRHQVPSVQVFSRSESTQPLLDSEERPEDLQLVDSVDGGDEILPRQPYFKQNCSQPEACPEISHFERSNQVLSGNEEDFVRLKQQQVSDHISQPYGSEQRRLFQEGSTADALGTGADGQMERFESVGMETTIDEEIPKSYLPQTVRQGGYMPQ
Protocol: as §1, §2

T1 sequence (Q00560 640-917 limits assumed, change not shown, one chain of several): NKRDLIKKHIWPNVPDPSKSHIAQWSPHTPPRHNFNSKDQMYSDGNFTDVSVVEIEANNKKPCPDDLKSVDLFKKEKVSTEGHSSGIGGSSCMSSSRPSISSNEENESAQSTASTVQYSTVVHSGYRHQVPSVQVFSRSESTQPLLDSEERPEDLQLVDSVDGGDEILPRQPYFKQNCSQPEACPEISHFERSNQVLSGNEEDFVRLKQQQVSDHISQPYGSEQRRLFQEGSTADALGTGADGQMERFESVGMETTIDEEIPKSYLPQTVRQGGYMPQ
Protocol for D027 ES cells: Data were collected as means±s.e.m for duplicate determinations of triplicate samples normalized relative to the response to LIF. […] Data was collected as means±s.e.m for duplicate determinations of triplicate samples normalized relative to the maximum response of cells to treatment with LIF(111 U/ml) plus vehicle.
Expression of β-galactosidase from the Oct-4 locus in D027 cells was quantitated in an ONPG assay. Cells were plated at 5000 per well in a 24-well dishes and cultured for 6 days in the presence or absence of cytokine. When cells were treated with PD098059, they were plated at 2500 per well and cultured overnight in normal growth medium prior to addition of the inhibitor. On day 6, cells were washed once with PBS and lysed in 0.4 ml of 0.25 M Tris pH 7.5, 0.5 mM DTT, 0.5 % NP40. Lysate (40 μl) was mixed with 100 μl of ONPG buffer (60 mM Na2HPO4, 40 mM NaH2PO4, 10 mM KCl, 1 mM MgCl2, 50 mM 2-mercaptoethanol, 1.2 mM ONPG) in a microtitre plate, incubated at 37° C. for 2-4 hours and the absorbance was read at 420 nm. All assays were performed in triplicate.
D027 cells have a LacZ gene inserted within the stem cell specific gene, Oct-4. As a consequence, expression of this integrated reporter gene is restricted to undifferentiated ES cells and the resulting β-galactosidase activity provides a measure of stem cell self-renewal.
To test this hypothesis, D027 cells were cultured in the presence of the specific MEK inhibitor, PD098059. A sub-saturating concentration of LIF (5 U/ml) was used in these experiments to increase these sensitivity of the assay to changes in self-renewal signaling.
Self-renewal ES cells was assayed flowing treatment with 0.1-100 U/ml LIF either in the presence of 25 μM PD098059 or vehicle (02% DMSO).

Molecule | concentration at which G-CSF dependent phosphorylation of ERK1 and ERK2 was effectively blocked (ERK1 and ERK2) [µM] | concentration range over which G-CSF dependent phosphorylation of ERK1 and ERK2 was progressively reduced (ERK1 and ERK2) [µM] | effect on dose response of ES cells to LIF (β-galactosidase activity) (D027 ES cells; 25 μM PD098059 versus vehicle, 0.1-100 U/ml LIF) | effect on ES cell self-renewal compared with vehicle alone (D027 ES cells; 3-25 μM PD098059, sub-saturating LIF (5 U/ml)) | effect on differentiation of ES cells in the absence of LIF (D027 ES cells; absence of LIF) | concentration at which maximum level of self-renewal is achieved (D027 ES cells; sub-saturating LIF (5 U/ml), dose dependent increase) [µM] | contribution of treated ES cells to chimaeras (β-galactosidase staining of mid-gestation embryos) (ZIN40 ES cells) | representation of undifferentiated β-galactosidase positive cells (IOUD2 ES cells; 0, 25, 50, 75 or 100 μm, aggregates 6 days, no inhibitor as control) | concentration at which the great majority of cells were undifferentiated (IOUD2 ES cells; aggregates maintained 6 days) [µM] | G-CSF concentration at which self-renewal reaches a plateau [1] [ng/mL] | G-CSF concentration at which maximal self-renewal response was achieved [2] [pg/mL]
COc1cccc(-c2cc(=O)c3ccccc3o2)c1N [PD098059] | 25 | 3 to 12 | increased the level of β-galactosidase activity at all concentrations of LIF | did not inhibit self-renewal | did not block the differentiation of ES cells | 12 to 25 | contributed to chimaeras | increased in a dose dependent fashion | 75 to 100 |  | 
B1 |  |  |  |  |  |  |  |  |  | 3 to 30 | 30
